Source: ChEMBL document CHEMBL1201862, “PubChem BioAssay data set” (2004)
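A five-concentration, 48-hour dose response in 96-well plates underlies each endpoint, interpolated linearly between surrounding concentrations. GI50 marks 50% less growth.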 Calls of active or inactive are those of the source. Rule as the data show it: active = GI50 up to about 1.1 µM and inactive = higher.

Columns and labels:
Assay in all cases: inhibition of tumour cell growth, NCI panel, 48 h
[1] = test system: HOP-62
[2] = test system: OVCAR-4
[3] = test system: UACC-62
[4] = test system: COLO 205
[5] = test system: CAKI-1
[6] = test system: SNB-75
[7] = test system: SW-620
[8] = test system: EKVX
[9] = test system: SK-MEL-28
[10] = test system: Malme-3M
[11] = test system: NCI-H522
[12] = test system: MOLT-4
[13] = test system: OVCAR-3
[14] = test system: OVCAR-8
[15] = test system: ACHN
[16] = test system: HCT-15
[17] = test system: SK-MEL-2
[18] = test system: OVCAR-5
[19] = test system: LOX IMVI

Compound: CN1CCN(CCn2c3c4ccccc4ccc3c3oc(=O)c4ccccc4c32)CC1
- GI50 [1]: 2.07 µM (inactive)
- GI50 [2]: 2.26 µM (inactive)
- GI50 [3]: 3.56 µM (inactive)
- GI50 [4]: 1.8 µM (inactive)
- GI50 [5]: 4.97 µM (inactive)
- GI50 [6]: 4.37 µM (inactive)
- GI50 [7]: 1.86 µM (inactive)
- GI50 [8]: 12.7 µM (inactive)
- GI50 [9]: 4.94 µM (inactive)
- GI50 [10]: 15.1 µM (inactive)
- GI50 [11]: 4.55 µM (inactive)
- GI50 [12]: 1.5 µM (inactive)
- GI50 [13]: 10.6 µM (inactive)
- GI50 [14]: 1.52 µM (inactive)
- GI50 [15]: 3.05 µM (inactive)
- GI50 [16]: 2.72 µM
- GI50 [17]: 13.5 µM (inactive)
- GI50 [18]: 5.74 µM (inactive)

Compound: C[C@@H]1CC[C@]2(C(=O)O)CC[C@]3(C)C(=CC[C@@H]4[C@@]5(C)CC[C@H](O)C(C)(C)[C@@H]5CC[C@]43C)[C@@H]2[C@]1(C)O [POMOLIC ACID]
- GI50 [2]: 16.8 µM (inactive)
- GI50 [3]: 3.49 µM (inactive)
- GI50 [4]: 16.4 µM (inactive)
- GI50 [5]: 14 µM (inactive)
- GI50 [6]: 13.5 µM (inactive)
- GI50 [7]: 21.9 µM (inactive)
- GI50 [8]: 18.3 µM (inactive)
- GI50 [9]: 13.6 µM (inactive)
- GI50 [10]: 12.3 µM (inactive)
- GI50 [11]: 13.9 µM (inactive)
- GI50 [12]: 4.86 µM (inactive)
- GI50 [13]: 18.6 µM (inactive)
- GI50 [14]: 20.2 µM (inactive)
- GI50 [15]: 16.5 µM (inactive)
- GI50 [16]: 10.6 µM
- GI50 [17]: 17.1 µM (inactive)
- GI50 [19]: 15.7 µM (inactive)
- GI50 [18]: 17.7 µM (inactive)

Compound: CC(C)NC(=O)OCc1c(COC(=O)NC(C)C)n(C)c2c1ccc1cc(Cl)c(Cl)cc12
- GI50 [1]: 14.7 µM (inactive)
- GI50 [2]: 20.1 µM (inactive)
- GI50 [3]: 12 µM (inactive)
- GI50 [4]: 10.9 µM (inactive)
- GI50 [5]: 2.09 µM (inactive)
- GI50 [6]: 13.4 µM (inactive)
- GI50 [7]: 11.3 µM (inactive)
- GI50 [8]: 14.8 µM (inactive)
- GI50 [10]: 10.8 µM (inactive)
- GI50 [11]: 1.49 µM (inactive)
- GI50 [12]: 3.97 µM (inactive)
- GI50 [13]: 16.6 µM (inactive)
- GI50 [14]: 11.6 µM (inactive)
- GI50 [15]: 11.7 µM (inactive)
- GI50 [16]: 12.7 µM
- GI50 [17]: 17.3 µM (inactive)
- GI50 [19]: 9.23 µM (inactive)
- GI50 [18]: 15.4 µM (inactive)

Compound: c1ccc([P+](Cc2ccc(C[P+](c3ccccc3)(c3ccccc3)c3ccccc3)cc2)(c2ccccc2)c2ccccc2)cc1
- GI50 [1]: 69.5 µM (inactive)
- GI50 [2]: 48.1 µM (inactive)
- GI50 [3]: 44.2 µM (inactive)
- GI50 [4]: 31.2 µM (inactive)
- GI50 [5]: > 100 µM (inactive)
- GI50 [6]: 29.6 µM (inactive)
- GI50 [7]: 72.4 µM (inactive)
- GI50 [8]: 21.8 µM (inactive)
- GI50 [9]: 67.9 µM (inactive)
- GI50 [10]: 52.7 µM (inactive)
- GI50 [11]: 62.2 µM (inactive)
- GI50 [12]: > 100 µM (inactive)
- GI50 [13]: 27.7 µM (inactive)
- GI50 [14]: 45.8 µM (inactive)
- GI50 [15]: > 100 µM (inactive)
- GI50 [16]: > 100 µM
- GI50 [19]: 14.6 µM (inactive)
- GI50 [18]: 88.5 µM (inactive)

Compound: c1ccc2c(c1)nc1n2C2CCC(C2)N1 (configuration not stated)
- GI50 [1]: > 10 µM (inactive)
- GI50 [2]: > 10 µM (inactive)
- GI50 [3]: > 10 µM (inactive)
- GI50 [4]: > 10 µM (inactive)
- GI50 [5]: > 10 µM (inactive)
- GI50 [6]: 1.87 µM (inactive)
- GI50 [7]: > 10 µM (inactive)
- GI50 [8]: > 10 µM (inactive)
- GI50 [9]: > 10 µM (inactive)
- GI50 [10]: > 10 µM (inactive)
- GI50 [11]: > 10 µM (inactive)
- GI50 [12]: > 10 µM (inactive)
- GI50 [13]: > 10 µM (inactive)
- GI50 [14]: > 10 µM (inactive)
- GI50 [16]: > 10 µM
- GI50 [17]: > 10 µM (inactive)
- GI50 [19]: > 10 µM (inactive)
- GI50 [18]: > 10 µM (inactive)

Compound: NCC1CCCCC1.O=C(O)NCC1CCCCC1
- GI50 [1]: 17.5 µM (inactive)
- GI50 [2]: 35.6 µM (inactive)
- GI50 [3]: 18.7 µM (inactive)
- GI50 [5]: 28.2 µM (inactive)
- GI50 [6]: 13.7 µM (inactive)
- GI50 [7]: 17.9 µM (inactive)
- GI50 [8]: 30.1 µM (inactive)
- GI50 [9]: 38 µM (inactive)
- GI50 [10]: 2.29 µM (inactive)
- GI50 [11]: 10.7 µM (inactive)
- GI50 [12]: 15.2 µM (inactive)
- GI50 [13]: 4.89 µM (inactive)
- GI50 [14]: 13.2 µM (inactive)
- GI50 [15]: 23.9 µM (inactive)
- GI50 [16]: 23.8 µM
- GI50 [17]: 14.1 µM (inactive)
- GI50 [19]: 15.3 µM (inactive)
- GI50 [18]: 31.9 µM (inactive)

Compound: N=c1oc2ccc3ccccc3c2cc1-c1nc(O)c2ccccc2n1
- GI50 [1]: 15.8 µM (inactive)
- GI50 [2]: 20.6 µM (inactive)
- GI50 [3]: 12.8 µM (inactive)
- GI50 [4]: > 100 µM (inactive)
- GI50 [5]: 43.5 µM (inactive)
- GI50 [6]: 2.44 µM (inactive)
- GI50 [7]: 36.8 µM (inactive)
- GI50 [8]: 19.5 µM (inactive)
- GI50 [9]: 95.7 µM (inactive)
- GI50 [10]: 23.4 µM (inactive)
- GI50 [11]: 3.27 µM (inactive)
- GI50 [12]: 15.8 µM (inactive)
- GI50 [14]: 26.7 µM (inactive)
- GI50 [15]: 11.1 µM (inactive)
- GI50 [16]: 19.9 µM
- GI50 [17]: 14.4 µM (inactive)
- GI50 [19]: 38.5 µM (inactive)
- GI50 [18]: 96.6 µM (inactive)

Compound: c1ccc2nc(CCC3CCCCN3)ccc2c1 (configuration not stated)
- GI50 [1]: 85.5 µM (inactive)
- GI50 [2]: > 100 µM (inactive)
- GI50 [3]: > 100 µM (inactive)
- GI50 [4]: 16.7 µM (inactive)
- GI50 [5]: > 100 µM (inactive)
- GI50 [6]: 92.3 µM (inactive)
- GI50 [7]: > 100 µM (inactive)
- GI50 [8]: 42.2 µM (inactive)
- GI50 [9]: > 100 µM (inactive)
- GI50 [10]: 91.4 µM (inactive)
- GI50 [11]: 40.6 µM (inactive)
- GI50 [14]: > 100 µM (inactive)
- GI50 [15]: > 100 µM (inactive)
- GI50 [16]: > 100 µM
- GI50 [17]: > 100 µM (inactive)
- GI50 [19]: > 100 µM (inactive)
- GI50 [18]: > 100 µM (inactive)

Compound: O=C1/C(=C\c2ccc([N+](=O)[O-])cc2)N(S(=O)(=O)c2ccccc2)c2ncccc21
- GI50 [1]: 18.7 µM (inactive)
- GI50 [3]: 9.23 µM (inactive)
- GI50 [4]: 19.5 µM (inactive)
- GI50 [5]: 8.18 µM (inactive)
- GI50 [6]: 14.5 µM (inactive)
- GI50 [7]: 14.9 µM (inactive)
- GI50 [8]: > 10 µM (inactive)
- GI50 [9]: 20.7 µM (inactive)
- GI50 [10]: 18.2 µM (inactive)
- GI50 [11]: 18.3 µM (inactive)
- GI50 [12]: 3.24 µM (inactive)
- GI50 [13]: 12.2 µM (inactive)
- GI50 [14]: 20.9 µM (inactive)
- GI50 [15]: 15.9 µM (inactive)
- GI50 [16]: 15.7 µM
- GI50 [19]: 19.5 µM (inactive)

Compound: O=C(NO)NCCCl
- GI50 [1]: > 100 µM (inactive)
- GI50 [2]: > 100 µM (inactive)
- GI50 [3]: > 100 µM (inactive)
- GI50 [4]: > 100 µM (inactive)
- GI50 [5]: > 100 µM (inactive)
- GI50 [6]: > 100 µM (inactive)
- GI50 [7]: > 100 µM (inactive)
- GI50 [8]: > 100 µM (inactive)
- GI50 [10]: > 100 µM (inactive)
- GI50 [11]: > 100 µM (inactive)
- GI50 [12]: > 100 µM (inactive)
- GI50 [13]: > 100 µM (inactive)
- GI50 [14]: > 100 µM (inactive)
- GI50 [15]: > 100 µM (inactive)
- GI50 [16]: > 100 µM
- GI50 [17]: > 100 µM (inactive)
- GI50 [19]: > 100 µM (inactive)
- GI50 [18]: > 100 µM (inactive)

Compound: O=C(O)CC(C(=O)O)c1ccccc1[N+](=O)[O-] (configuration not stated)
- GI50 [1]: > 100 µM (inactive)
- GI50 [2]: > 100 µM (inactive)
- GI50 [3]: > 100 µM (inactive)
- GI50 [4]: > 100 µM (inactive)
- GI50 [5]: > 100 µM (inactive)
- GI50 [6]: > 100 µM (inactive)
- GI50 [7]: > 100 µM (inactive)
- GI50 [8]: > 100 µM (inactive)
- GI50 [9]: > 100 µM (inactive)
- GI50 [10]: > 100 µM (inactive)
- GI50 [11]: > 100 µM (inactive)
- GI50 [13]: > 100 µM (inactive)
- GI50 [14]: > 100 µM (inactive)
- GI50 [15]: > 100 µM (inactive)
- GI50 [16]: > 100 µM
- GI50 [17]: > 100 µM (inactive)
- GI50 [19]: > 100 µM (inactive)
- GI50 [18]: > 100 µM (inactive)

Compound: NNC(=S)N1CCN(C(=S)NN)CC1
- GI50 [1]: > 100 µM (inactive)
- GI50 [2]: 28.8 µM (inactive)
- GI50 [3]: > 100 µM (inactive)
- GI50 [4]: 65.8 µM (inactive)
- GI50 [5]: > 100 µM (inactive)
- GI50 [6]: > 100 µM (inactive)
- GI50 [7]: > 100 µM (inactive)
- GI50 [8]: > 100 µM (inactive)
- GI50 [9]: > 100 µM (inactive)
- GI50 [10]: > 100 µM (inactive)
- GI50 [11]: > 100 µM (inactive)
- GI50 [12]: > 100 µM (inactive)
- GI50 [13]: > 100 µM (inactive)
- GI50 [15]: > 100 µM (inactive)
- GI50 [17]: > 100 µM (inactive)
- GI50 [19]: 58.1 µM (inactive)
- GI50 [18]: > 100 µM (inactive)
